Data: PubChem BioAssay (NCI)
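Values below derive from 48-hour exposures of cells grown in 96-well plates, with endpoints linearly interpolated between the two concentrations bracketing the appropriate inhibition level. GI50 is the concentration that inhibits growth by half. TGI marks complete inhibition of growth.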

Experiments:
Assay in all cases: NCI tumour cell line growth inhibition, 48 h
HOP-92 NSCLC = test system: HOP-92 NSCLC
K-562 leukemia = test system: K-562 leukemia
MDA-MB-231 breast = test system: MDA-MB-231 breast
OVCAR-3 ovarian = test system: OVCAR-3 ovarian
KM12 colon = test system: KM12 colon
SN12C renal = test system: SN12C renal
786-0 renal = test system: 786-0 renal
HT29 colon = test system: HT29 colon
HCT-15 colon = test system: HCT-15 colon
NCI-H226 lung = test system: NCI-H226 lung

Row | SMILES | TGI (HOP-92 NSCLC) [µM] | TGI (K-562 leukemia) [µM] | TGI (MDA-MB-231 breast) [µM] | TGI (OVCAR-3 ovarian) [µM] | TGI (KM12 colon) [µM] | TGI (SN12C renal) [µM] | TGI (786-0 renal) [µM] | TGI (HT29 colon) [µM] | TGI (HCT-15 colon) [µM] | TGI (NCI-H226 lung) [µM] | GI50 (HOP-92 NSCLC) [µM] | GI50 (K-562 leukemia) [µM] | GI50 (MDA-MB-231 breast) [µM] | GI50 (OVCAR-3 ovarian) [µM] | GI50 (KM12 colon) [µM] | GI50 (SN12C renal) [µM] | GI50 (HT29 colon) [µM] | GI50 (HCT-15 colon) [µM] | GI50 (NCI-H226 lung) [µM]
1 | O=c1[nH]nc(-c2ccc(F)cc2)cc1-c1ccccc1 | > 100 | > 100 | > 100 | > 100 | > 100 | > 100 | > 100 | > 100 | > 100 | > 100 |  |  |  |  |  |  |  |  | 
2 | CC(CC[C@@]1(O)OC2C[C@H]3[C@@H]4CC[C@H]5CC(OC6OC(CO)C(OC7OC(CO)C(O)C(OC8OCC(O)C(O)C8O)C7OC7OC(CO)C(O)C(O)C7O)C(O)C6O)[C@H](O)CC5(C)[C@H]4CCC3(C)C2[C@@H]1C)COC1OC(CO)C(O)C(O)C1O (stereo not given in full) | > 50 | > 50 | > 50 | 23.1 | > 50 | 19.6 | 21.8 | 33.4 | > 50 | 28.8 |  |  |  |  |  |  |  |  | 
3 | O=C1/C(=C/c2ccccc2)CCCc2ccccc21 | 32.9 | 49.4 | 39.1 | 35.2 | 35.2 | 33.8 | 31.3 | 36 | 32.3 | 36.6 |  |  |  |  |  |  |  |  | 
4 | COc1ccc2oc(C(=O)N3CC(CCl)c4ccc(N)cc43)cc2c1 (stereo not given) | 18.7 | > 63.4 | > 26.7 | > 100 | 1.45 | 8.5 | 0.277 | 1.44 | 3.18 | 14.1 |  |  |  |  |  |  |  |  | 
5 | COc1ccc(C2C3=C(COC3=O)OC(C)(C)Oc3cc4c(cc32)OCO4)cc1OC (stereo not given) | > 73.8 | > 95.7 | > 84.1 | > 100 | 67.2 | > 100 | > 100 | > 100 | > 100 | > 100 |  |  |  |  |  |  |  |  | 
6 | COC(=O)CNC(=O)CCC(C)[C@H]1CCC2C3C(C[C@H](OC(C)=O)[C@@]21C)[C@@]1(C)CCC2(C[C@H]1C[C@H]3OC(C)=O)OOC1(CCCCC1)OO2 (stereo not given in full) | 2.72 | 9.51 | 3.48 | 3.77 | 3.64 | 3.17 | 3.48 | 7.44 | 8.65 | 4.65 |  |  |  |  |  |  |  |  | 
7 | C1=NCCOCCN=Cc2ccc(cc2)OCc2cccc(n2)COc2ccc1cc2 | > 100 | > 100 | > 100 | > 100 | > 100 | > 100 | > 100 | > 100 | > 100 | > 100 |  |  |  |  |  |  |  |  | 
8 | COc1cccc2cc(C(=O)NC34CC5CC(CC(C5)C3)C4)c(=N)oc12 | > 55 | > 100 | > 100 | > 73.2 | > 100 | > 100 | > 100 | > 100 | > 100 | > 100 |  |  |  |  |  |  |  |  | 
9 | N#Cc1c(-c2ccc([N+](=O)[O-])cc2)cc(-c2ccc(Nc3ccnc4cc(Cl)ccc34)cc2)nc1N | 48.7 | > 33.1 | 33.7 | 15.8 | 14.7 | 17.6 | 3.02 | 8.86 | 18.6 | > 95.2 |  |  |  |  |  |  |  |  | 
10 | CC(C)=C[C@@H]1O[C@H](O)[C@@H]([C@H]2CC[C@@]3(C)[C@@H]4CC[C@H]5C(C)(C)C(=O)CC[C@@]56C[C@@]46CC[C@]23C)[C@@H]1O | 32 | 38.4 | 37.1 | 27.3 | 34.9 | 38.2 | 27.6 | 24.1 | 36.1 | 24.6 |  |  |  |  |  |  |  |  | 
11 | Nc1c2cc3ccc2nc2ccc(cc12)OCCOCCOCCOCCOCCOCCO3 | > 10 | > 10 | > 10 | > 10 | > 10 | > 10 | > 10 | > 10 | > 10 | > 10 |  |  |  |  |  |  |  |  | 
12 | Cc1cn(C2OC(CO)C(O)C2F)c(=O)[nH]c1=O (stereo not given) | > 100 | > 100 | > 100 | > 100 | > 100 | > 100 | > 100 | > 100 | > 100 | > 100 |  |  |  |  |  |  |  |  | 
13 | CC(=O)NC1C(OCc2ccccc2)OC(CO)C(O)C1OCC(=O)N[C@@H](C)C(=O)N[C@H](CCC(=O)NCCNc1ccc([N+](=O)[O-])c2[nH]c3ccccc3c(=O)c12)C(N)=O (stereo not given in full) | 80.8 | > 100 | 94.4 | > 100 | > 100 | > 100 | 83.2 | 85.8 | 44.9 | 32.4 |  |  |  |  |  |  |  |  | 
14 | C#C[C@]1(O)CC[C@H]2[C@@H]3CCC4=C/C(=N/OC(=O)c5cccc6c(=O)c7ccccc7[nH]c56)CCC4[C@H]3CC[C@@]21CC (stereo not given in full) | > 100 | > 82.3 | > 100 | > 61.1 | > 100 | > 100 | > 39.6 | > 50.7 | > 47.7 | > 100 |  |  |  |  |  |  |  |  | 
15 | C=CCN(CCN(CC=C)S(=O)(=O)c1ccc(C)cc1)S(=O)(=O)c1ccc(C)cc1 | > 100 | > 100 | > 100 | > 100 | > 100 | > 100 |  | > 100 | > 100 | > 100 |  |  |  |  |  |  |  |  | 
16 | COc1ccc(/C=C/C(=O)Oc2ccccc2OC)cc1 | 97.7 | > 100 | 18 | > 100 | 31.3 | 58.2 | > 67 | > 59 | 37 | > 100 |  |  |  |  |  |  |  |  | 

Row | SMILES | TGI (HOP-92 NSCLC) [µM] | TGI (K-562 leukemia) [µM] | TGI (MDA-MB-231 breast) [µM] | TGI (OVCAR-3 ovarian) [µM] | TGI (KM12 colon) [µM] | TGI (SN12C renal) [µM] | TGI (786-0 renal) [µM] | TGI (HT29 colon) [µM] | TGI (HCT-15 colon) [µM] | TGI (NCI-H226 lung) [µM] | GI50 (HOP-92 NSCLC) [µM] | GI50 (K-562 leukemia) [µM] | GI50 (MDA-MB-231 breast) [µM] | GI50 (OVCAR-3 ovarian) [µM] | GI50 (KM12 colon) [µM] | GI50 (SN12C renal) [µM] | GI50 (HT29 colon) [µM] | GI50 (HCT-15 colon) [µM] | GI50 (NCI-H226 lung) [µM]
17 | O=C(Nc1ccc2cc3ccccc3cc2c1)c1cc2c(cc1Cl)Sc1nccn1S2(=O)=O | > 100 | > 100 | 60.1 | > 100 | > 100 | > 100 | 30 | > 100 | > 100 | > 100 |  |  |  |  |  |  |  |  | 
18 | O=c1c2c3c(sc2nc2n1N=CN(c1ccc(F)cc1)C2)CCCC3 | > 100 | > 100 | > 100 | > 100 | > 100 | > 100 | > 100 | > 100 | > 100 | > 100 |  |  |  |  |  |  |  |  | 
19 | C=CC[C@]1(C2=NC(C)(C)CO2)c2ccccc2-c2ccccc2[C@H]1C(C)=O | 39.8 | 29.8 | 30 | 9.08 | 38.6 | 30.8 | 24.9 | 17.3 | 26.4 | 30 |  |  |  |  |  |  |  |  | 
20 | C=CCn1c(-c2ccc(Cl)cc2)csc1=Nc1ccccc1OC | > 100 | 19.4 | > 100 | > 100 | > 100 | > 100 | > 100 |  | > 100 | > 100 |  |  |  |  |  |  |  |  | 
21 | COC(=O)[C@H](Cc1c[nH]c2ccccc12)NC(=O)c1ccccc1I | 35.2 | > 100 | > 100 | 33.1 | > 100 | > 100 | 34.6 | > 100 | > 100 | 82.2 |  |  |  |  |  |  |  |  | 
22 | NC(N)=N/N=C/c1c(-c2cc([N+](=O)[O-])c(Cl)cc2Cl)nc2n1CCS2 | 61.6 | > 100 | > 100 | > 100 | > 100 | > 100 | > 100 | 27.5 | > 100 | 92.5 |  |  |  |  |  |  |  |  | 
23 | NCCNC(=O)CN(CC(=O)O)C1CCCCC1N(CC(=O)O)CC(=O)O (stereo not given) | > 100 | > 100 | > 100 | > 100 | > 100 | > 100 | > 100 | > 100 | > 100 | > 100 |  |  |  |  |  |  |  |  | 
24 | Cc1cc2nnc(C(N)=O)c(N)c2cc1C | > 100 | > 100 | > 100 | > 100 | > 100 | > 100 | 68.3 | > 100 | > 100 | > 100 |  |  |  |  |  |  |  |  | 
25 | NS(=O)(=O)c1nnc(NS(=O)(=O)c2ccc([N+](=O)[O-])cc2)s1 | > 100 | > 100 | > 100 | > 100 | > 100 |  | > 100 | > 100 | > 100 | > 100 |  |  |  |  |  |  |  |  | 
26 | C[n+]1cn(-c2nc3ccccc3nc2[N-]S(=O)(=O)c2ccccc2)c2ccccc21 | > 100 | > 100 | > 100 | > 100 | > 100 | > 100 | > 100 | > 100 | > 100 | > 100 |  |  |  |  |  |  |  |  | 
27 | COc1ccc2c(c1OC)C(=O)O[C@@H]2[C@H]1c2c(cc3c(c2OC)OCO3)CCN1C | > 100 | > 100 | > 100 | 49.9 | > 100 | > 100 | > 100 | > 100 | > 100 | > 100 |  |  |  |  |  |  |  |  | 
28 | O=C(NC1(C(=O)O)CCCC1)c1ccccc1 | > 100 | > 100 | > 100 | > 100 | > 100 | > 100 | > 100 | > 100 | > 100 | > 100 |  |  |  |  |  |  |  |  | 
29 | CN(C)c1ccc(/C=C(\NC(=O)c2ccccc2)C(=O)NC(Cc2c[nH]c3ccccc23)C(=O)O)cc1 (stereo not given) | > 100 | > 100 | > 100 | > 100 | > 100 | > 100 | > 100 | > 100 | > 100 | > 100 |  |  |  |  |  |  |  |  | 
30 | COc1ccccc1C1C(C#N)=C(N)Oc2cc(O)ccc21 (stereo not given) | 33.7 | > 100 | 24.8 | 51.4 | > 100 | 31.1 |  | 45.1 | > 100 | 35 | 4.77 | 4.68 | 4.34 | 13 | 9.57 | 11.6 | 16 | 23.9 | 13.7
31 | Cc1ccc(C(=O)N/N=C2/C(=O)c3c4ccccc4cc4cccc2c34)cc1 | > 94 | > 100 | > 100 | 66.6 | > 84.3 | 76.5 | 74.1 | 97.5 | > 100 | > 100 |  |  |  |  |  |  |  |  | 
